Here are results for one compound from patent US20090305955A1, “Cyclopeptide with Anti-Cancer Activity Derived from Collagen Type IV” (priority 2006, published 2009).

Common to all, as to format: cell-based, human
One test deals with u-PAR. Nature of the test: Western blot of u-PAR, HUVEC cells. As to conditions: 20 μM. The protocol:
FIG. 21: Effect of YSNSG (SEQ ID NO: 3) cyclopeptide on the expression of the u-PA receptor: u-PAR by HUVEC cells. The secretion of u-PAR was analyzed by Western blot (A) in a medium conditioned by HUVEC cells in the absence (control) or in the presence of 20 μM of the cyclopeptide YSNSG (SEQ ID NO: 3). Quantification was carried out using Bio 1D software (B);
(§1) The samples underwent 10% polyacrylamide gel electrophoresis in the presence of 0.1% SDS then were transferred onto Immobilon-P membranes (Millipore, St Quentin en Yvelines, France). The membranes were saturated with 5% freeze dried skimmed milk, Tween 20 0.1% in a 50 mM Tris-HCl, 150 mM NaCl buffer, pH 7.5 (TBS) for 2 hours at ambient temperature. The membranes were then incubated overnight at 4° C. with anti-MMP-14, anti-PAI-1 and anti-u-PAR antibodies then incubated for one hour at ambient temperature with a secondary antibody (anti-IgG) conjugated with peroxidase. The immune complexes were visualized with an ECL chemoluminescence detection kit.
(In general: A western blot detects proteins with antibodies after separation by electrophoresis.)

For test [1], the system named is HUVEC cells. Briefly: Scar wounding technique (artificial wound model). The conditions noted are these: 48 h incubation, 20 μM. The protocol:
FIG. 18: In vitro inhibition of HUVEC cell migration in the presence of YSNSG (SEQ ID NO: 3) cyclopeptide. Microscope photographs of artificial wounds produced on a monolayer of endothelial cells at T0 and T48h in the absence of peptide (control) or in the presence of 20 μM of YSNSG (SEQ ID NO: 3) cyclopeptide;
1×10^5 endothelial cells were seeded into 24-well plates and incubated for 24 hours at 37° C. A wound was made in the cellular monolayer at the centre of the well using a 200 μl cone point. The cells were washed with PBS to eliminate cell debris then incubated in the presence or absence of the cyclopeptide YSNSG (SEQ ID NO: 3). Closing of the wound, a witness to the migratory properties of the cells, was observed under the microscope and photographed after 48 hours incubation.

A further test concerns MT1-MMP. Briefly: Western blot of proMMP-14 / MMP-14, HUVEC membrane extracts. The conditions noted are these: 20 μM. The protocol:
FIG. 19: Effect of YSNSG (SEQ ID NO: 3) cyclopeptide on expression and activation of MMP-14 by HUVEC cells. The expression of proMMP-14 and MMP-14 was studied by Western blot (A). The HUVEC cells were cultivated in the absence (control) or in the presence of 20 μM of YSNSG (SEQ ID NO: 3) cyclopeptide and the corresponding membrane extracts were analyzed. Quantification was carried out using Bio 1D software (B);
as §1

Another test deals with β1 sub-unit of integrin. Nature of the test: β1 integrin immunolabelling, HUVEC cells. As to conditions: 20 μM, 48 h. The protocol: FIG. 23: Effect of YSNSG (SEQ ID NO: 3) cyclopeptide on the distribution of β1 integrin subunits on the surface of HUVEC cells. The cells were cultivated on glass slides in the absence (control) or in the presence of 20 μM of YSNSG (SEQ ID NO: 3) cyclopeptide. After 48 h of incubation, the cells were fixed and incubated in the presence of antibodies directed against the β1 integrin subunit. The slides were observed using a confocal microscope.
The cells were seeded onto sterile glass slides placed in 24-well plates (2×10^4 cells/well) in a suitable medium containing 5% serum in the presence or absence of YSNSG (SEQ ID NO: 3) cyclopeptide. After 24 and 48 hours incubation, the cells were fixed for 15 minutes in methanol. Three washes of 5 minutes in TBS-T were carried out, then the cells were incubated for 30 minutes at ambient temperature in a saturation solution (TBS-T containing 3% BSA). The cells were then incubated for 2 hours at ambient temperature in the presence of primary antibody diluted to 1/100 in TBS-T containing 3% BSA.

The test system of test [2] is HUVEC cells. Nature of the test: HUVEC cell proliferation.
In a further test the test system is HMEC-1 cells. Briefly: Formation of capillary pseudotubes on Matrigel. The conditions noted are these: 24 hours. The method, then:
FIG. 17: In vitro anti-angiogenic activity of cyclopeptide YSNSG (SEQ ID NO: 3). A: microscope photographs of the network of capillary pseudotubes of HMEC-1 endothelial cells after 24 hours incubation in the absence of peptide (control; 1), with the cyclopeptide YSNSG (SEQ ID NO: 3) at a concentration of 10 or 20 μM (2 and 3 respectively) or with the linear heptapeptide CNYYSNS (SEQ ID NO: 5) (20 μM) (positive control; 4). B: quantification of number of pseudotubes in photographs in A;
The in vitro anti-angiogenic activity of the cyclopeptide YSNSG (SEQ ID NO: 3) was measured on the formation of capillary pseudotubes by endothelial HMEC-1 or HUVEC cells deposited on a Matrigel mat.
A solution of Matrigel (ECM gel: 10 mg/ml) was deposited in a sterile manner in 24-well plates (Nunclon) in an amount of 250 μl per well onto piled ice. Gel formation was obtained by incubating the plate at 37° C. for 30 min. HMEC-1 cells or HUVEC cells at sub-confluence were detached from their plastic culture support by adding trypsin/EDTA then taken up into suspension in the culture medium for endothelial cells and diluted to a concentration of 2×10^5 cells per ml. 100 μl volumes of this cell suspension were deposited on the gel surface. […] Quantification was carried out using image analysis software.

Another test has as its system actin cytoskeleton. Briefly: Labelling actin F (phalloidin), HUVEC cells. The conditions noted are these: 20 μM, 48 h. The method, then:
FIG. 22: Effect of YSNSG (SEQ ID NO: 3) cyclopeptide on the organization of the cytoskeleton of HUVEC cells. The cells were cultivated on glass slides in the absence (control) or in the presence of 20 μM of YSNSG (SEQ ID NO: 3) cyclopeptide. After 48 h of incubation, the cells were fixed, permeabilized, incubated with phalloidin (A) or with an anti-Phospho-FAK antibody (B) then with Hoechst-33342. The slides were observed under a confocal microscope;
The cells were seeded onto sterile glass slides placed in a 24-well plate (2×10^4 cells/well) in a suitable medium containing 5% of serum, in the presence or absence of the cyclopeptide YSNSG (SEQ ID NO: 3). After 24 and 48 hours incubation, the cells were fixed with 3.7% formaldehyde for 10 minutes at ambient temperature and permeabilized for 3 minutes with an acetone solution at −20° C. Three 5 minute washes in PBS were carried out, then the cells were incubated for 30 minutes at ambient temperature in a saturation solution (PBS containing 1% bovine serum albumin). The cells were then incubated for 1 hour with phalloidin coupled with Alexa Fluor® 568 (diluted 1/40 in PBS containing 1% BSA) then washed 3 times for 5 minutes with PBS.

Where a SMILES comes first, the peptide text is derived from it.

In the case of `NC(=O)CC1NC(=O)C(CO)NC(=O)C(Cc2ccc(O)cc2)NC(=O)CNC(=O)C(CO)NC1=O` (centres unmarked) [cyclopeptide YSNSG, cyclopeptide YSNSG (SEQ ID NO: 3)] (cyclo(GYSNS); configuration not given here), the “reduction in the production of u-PAR” value with u-PAR was −49%. For the same compound, the “inhibition of the migration of the HUVEC cells” value with HUVEC cells [1] is listed as 83%. In the test with MT1-MMP, the “reduction in the activation of MT1-MMP” value stood at 56%. Besides, in the test with β1 sub-unit of integrin, the “Expression of the β1 sub-unit of integrin at the cellular periphery” value is “enhanced”. For the same compound, the “cell proliferation of HUVEC cells” value with HUVEC cells [2] is listed as “did not modify”. Moreover, the “reduces the formation of pseudotubes” value is 40% with HMEC-1 cells (10 μM) and “up to 70%” in the test on HMEC-1 cells (20 μM). Moreover, the “organization of the actin cytoskeleton” value with actin cytoskeleton is on record as “modification”.
